This note sets out measurements from paper PMC5293585, “Characteristics of a water-forming NADH oxidase from Methanobrevibacter smithii, an archaeon in the human gut” (Bioscience Reports, 2016).

Experiment [1] has as its target T1, NOX-ms (Methanobrevibacter smithii, UniProt A5UJ73).
T1 construct: gene Msm_0046; N-terminal His-tag (pET28a, EcoRI/XhoI), tag kept; E. coli BL21(DE3); FAD-containing holoenzyme (apo form for the FAD row)
T1 sequence (A5UJ73 1-444): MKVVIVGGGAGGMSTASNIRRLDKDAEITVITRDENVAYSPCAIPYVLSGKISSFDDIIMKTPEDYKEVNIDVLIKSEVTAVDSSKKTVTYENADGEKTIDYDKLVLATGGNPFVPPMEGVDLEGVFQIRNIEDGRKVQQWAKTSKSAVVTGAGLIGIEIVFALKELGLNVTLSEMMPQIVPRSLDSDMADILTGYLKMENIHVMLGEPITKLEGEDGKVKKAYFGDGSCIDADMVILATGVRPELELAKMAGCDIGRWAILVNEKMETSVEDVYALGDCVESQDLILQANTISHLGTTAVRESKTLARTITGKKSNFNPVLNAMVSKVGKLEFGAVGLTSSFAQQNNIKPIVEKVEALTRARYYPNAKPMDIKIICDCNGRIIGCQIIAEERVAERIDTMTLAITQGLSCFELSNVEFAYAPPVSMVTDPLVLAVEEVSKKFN
The experiment in a line: NADH oxidation at A340, Michaelis-Menten fit. The format is biochemical. The settings on record: apparent; O2 as co-substrate (aerobic); NADH 0.02-0.6 mM; optimal conditions (about 37°C, 50 mM sodium phosphate).

Experiment [2] has as its target T2, NOX-ms (Methanobrevibacter smithii, UniProt A5UJ73, C230A).
T2 construct: gene Msm_0046; N-terminal His-tag (pET28a, EcoRI/XhoI), tag kept; E. coli BL21(DE3); FAD-containing holoenzyme (apo form for the FAD row)
The experiment is described as follows: NADH oxidation at A340, relative activity. The format is biochemical. The settings on record: apparent; O2 as co-substrate (aerobic); NADH 0.02-0.6 mM; optimal conditions (about 37°C, 50 mM sodium phosphate).

The target in experiment [3] is T1, NOX-ms. The experiment in a line: absorption spectrum of holo, apo and reconstituted enzyme; activity restored by FAD. Particulars: apoenzyme reconstituted with equimolar FAD, room temperature, 5 min, dialysed. The format is binding.

T2 sequence (A5UJ73 entry or part of it C230A): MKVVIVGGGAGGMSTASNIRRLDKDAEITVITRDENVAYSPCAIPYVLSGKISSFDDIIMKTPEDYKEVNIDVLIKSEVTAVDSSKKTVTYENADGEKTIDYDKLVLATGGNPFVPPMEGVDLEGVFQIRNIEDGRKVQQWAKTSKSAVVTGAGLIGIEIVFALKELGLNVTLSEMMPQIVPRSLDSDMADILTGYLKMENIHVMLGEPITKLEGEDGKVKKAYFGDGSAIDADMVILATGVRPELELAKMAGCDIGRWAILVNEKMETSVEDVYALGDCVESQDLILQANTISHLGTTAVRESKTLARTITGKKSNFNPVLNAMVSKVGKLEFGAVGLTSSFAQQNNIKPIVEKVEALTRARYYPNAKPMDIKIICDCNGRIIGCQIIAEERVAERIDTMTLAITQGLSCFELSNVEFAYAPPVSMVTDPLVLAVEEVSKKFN

`NC(=O)C1=CN([C@@H]2O[C@H](COP(=O)(O)OP(=O)(O)OC[C@H]3O[C@@H](n4cnc5c(N)ncnc54)[C@H](O)[C@@H]3O)[C@@H](O)[C@H]2O)C=CC1` [NADH]: the Km (commonly the concentration of substrate that gives half-maximal velocity) at NOX-ms [1] was in the range of 47.8 to 54.6 µM. The “NADH oxidation at A340, relative activity” value at NOX-ms [2] was “the C230A mutant had similar NOX activity to that of the wild-type protein”.
As to `Cc1cc2nc3c(=O)[nH]c(=O)nc-3n(C[C@H](O)[C@H](O)[C@H](O)COP(=O)(O)OP(=O)(O)OC[C@H]3O[C@@H](n4cnc5c(N)ncnc54)[C@H](O)[C@@H]3O)c2cc1C` [FAD], at NOX-ms [3], the “absorption spectrum of holo, apo and reconstituted enzyme; activity restored by” value was “The holoenzyme can be reconstituted by incubating equimolar concentrations of apomonomers and FAD”.
